Where two headings read alike, the source gives them in different places.
Molecular target: T1, apelin receptor (APJ) (Homo sapiens, UniProt P35414)
T1 sequence (P35414 1-380): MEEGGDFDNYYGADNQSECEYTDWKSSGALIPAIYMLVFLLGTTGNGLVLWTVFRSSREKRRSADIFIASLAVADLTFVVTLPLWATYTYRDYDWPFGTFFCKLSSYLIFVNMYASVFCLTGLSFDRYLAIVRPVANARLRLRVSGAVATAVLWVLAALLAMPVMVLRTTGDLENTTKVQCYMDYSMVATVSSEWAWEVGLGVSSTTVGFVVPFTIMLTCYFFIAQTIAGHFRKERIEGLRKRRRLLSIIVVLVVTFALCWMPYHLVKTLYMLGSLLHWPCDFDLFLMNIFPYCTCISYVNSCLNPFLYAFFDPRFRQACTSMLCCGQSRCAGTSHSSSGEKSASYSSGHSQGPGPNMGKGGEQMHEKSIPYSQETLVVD
Test: In vitro apelin agonist activity (methods of Giddings et al., Apelin-13 as positive control)
Assay type: cell-based
Details: in vitro apelin agonist activity, methods of Giddings et al., Apelin-13 as positive control
From the text: Characterization of the Apelin Agonist Activity of the Compounds
1:39-47, the contents of which are hereby incorporated by reference in its entirety. Using the methods described in Giddings et al. and Apelin-13 as a positive control.

Row | EC50 (read-out: EC50 (nM) Ave) [nM] | SMILES | EC50 (EC50 (nM) Ave) [nM]
1 | 9210 | COc1cccc(OC)c1-c1cc(C(=O)N[C@@H](/C=C/c2ccccn2)CC(=O)NC2CCC2)nn1C1CCCC1 [compound 435, (3R,4E)-N-cyclobutyl-3-{[1-cyclopentyl-5-(2,6-dimethoxyphenyl)-1H-pyrazol-3-yl]formamido}-5-(pyridin-2-yl)pent-4-enamide] | –
2 | 261 | CC1(C)CCCCN1CC[C@@H](CC(=O)NC1CCC1)NC(=O)c1cc(-c2ccccc2C(F)(F)F)n(C2CCCC2)n1 [compound 517, (3S)-N-cyclobutyl-3-({1-cyclopentyl-5-[2-(trifluoromethyl)phenyl]-1H-pyrazol-3-yl}formamido)-5-(2,2-dimethylpiperidin-1-yl)pentanamide] | –
3 | 78 | O=C(O)C[C@H](CCN1CCC(C(F)(F)F)C1)NC(=O)c1cc(-c2ccccc2C(F)(F)F)n(C2CCCC2)n1 (stereo partly drawn) [compound 578, (3S)-3-({1-cyclopentyl-5-[2-(trifluoromethyl)phenyl]-1H-pyrazol-3-yl}formamido)-5-[3-(trifluoromethyl)pyrrolidin-1-yl]pentanoic acid] | –
4 | 10.6 | O=C(C[C@H](CCN1CCCC(F)(F)C1)NC(=O)c1cc(-c2ccccc2C(F)(F)F)n(C2CCCC2)n1)Nc1nccs1 [compound 426, (3S)-3-({1-cyclopentyl-5-[2-(trifluoromethyl)phenyl]-1H-pyrazol-3-yl}formamido)-5-(3,3-difluoropiperidin-1-yl)-N-(1,3-thiazol-2-yl)pentanamide] | –
5 | 1670 | O=C(O)C[C@H](CCN1CCCC(F)(F)C1)NC(=O)c1cc(-c2cccnc2Cl)n(C2CCCC2)n1 [compound 468] | –
6 | > 10000 | CCC(CC)n1nc(C(=O)N[C@@H](CCC2CCCCC2)CC(=O)O)cc1-c1c(OC)cccc1OC [compound 649, (3S)-5-cyclohexyl-3-{[5-(2,6-dimethoxyphenyl)-1-(pentan-3-yl)-1H-pyrazol-3-yl]formamido}pentanoic acid] | –
7 | 528 | O=C(O)C[C@H](CCN1CC2(CCC2(F)F)C1)NC(=O)c1cc(-c2ccccc2C(F)(F)F)n(C2CCCC2)n1 [compound 591, (3S)-3-({1-cyclopentyl-5-[2-(trifluoromethyl)phenyl]-1H-pyrazol-3-yl]formamido)-5-{5,5-difluoro-2-azaspiro[3.3]heptan-2-yl}pentanoic acid] | –
8 | 40 | O=C(O)C[C@H](CCN1CC(F)CC(F)C1)NC(=O)c1cc(-c2ccccc2C(F)(F)F)n(C2CCCC2)n1 (stereo partly drawn) [compound 639, (3S)-3-({1-cyclopentyl-5-[2-(trifluoromethyl)phenyl]-1H-pyrazol-3-yl}formamido)-5-(3,5-difluoropiperidin-1-yl)pentanoic acid] | –
9 | 292 | COc1cccc(OC)c1-c1cc(C(=O)N[C@@H](/C=C/c2ccc(F)cc2)CC(=O)NC2CCC2)nn1C1CCCC1 [compound 415, (3R,4E)-N-cyclobutyl-3-{[1-cyclopentyl-5-(2,6-dimethoxyphenyl)-1H-pyrazol-3-yl]formamido}-5-(4-fluorophenyl)pent-4-enamide] | –
10 | 388 | O=C(O)C[C@H](CCN1CC(F)(F)C1)NC(=O)c1cc(-c2ccccc2C(F)(F)F)n(C2CCCC2)n1 [compound 534, (3S)-3-({1-cyclopentyl-5-[2-(trifluoromethyl)phenyl]-1H-pyrazol-3-yl}formamido)-5-(3,3-difluoroazetidin-1-yl)pentanoic acid] | –
11 | 8680 | CC1(NC(=O)C[C@H](CC(=O)N2CCCCC2)NC(=O)c2cc(-c3ccccc3C(F)(F)F)n(C3CCCC3)n2)COC1 [compound 550, (3R)-3-({1-cyclopentyl-5-[2-(trifluoromethyl)phenyl]-1H-pyrazol-3-yl}formamido)-N-(3-methyloxetan-3-yl)-5-oxo-5-(piperidin-1-yl)pentanamide] | –
12 | 12700 | O=C(CCNC(=O)c1cc(-c2ccccc2C(F)(F)F)n(C2CCCC2)n1)Nc1nccs1 [compound 449, 3-({1-cyclopentyl-5-[2-(trifluoromethyl)phenyl]-1H-pyrazol-3-yl}formamido)-N-(1,3-thiazol-2-yl)propanamide] | –
13 | 1070 | CC1(C)CC(=O)CN1CC[C@@H](CC(=O)O)NC(=O)c1cc(-c2ccccc2C(F)(F)F)n(C2CCCC2)n1 [compound 608, (3S)-3-({1-cyclopentyl-5-[2-(trifluoromethyl)phenyl]-1H-pyrazol-3-yl}formamido)-5-(2,2-dimethyl-4-oxopyrrolidin-1-yl)pentanoic acid] | –
14 | 91 | C[C@H](C[C@@H](CC(=O)O)NC(=O)c1cc(-c2ccccc2C(F)(F)F)n(C2CCCC2)n1)N1CCCC(F)(F)C1 [compound 575, (3S,5R)-3-({1-cyclopentyl-5-[2-(trifluoromethyl)phenyl]-1H-pyrazol-3-yl}formamido)-5-(3,3-difluoropiperidin-1-yl)hexanoic acid] | –
15 | 1230 | O=C(O)C[C@H](COc1ccc(F)cc1)NC(=O)c1cc(-c2ccccc2C(F)(F)F)n(C2CCCC2)n1 [compound 545, (3R)-3-({1-cyclopentyl-5-[2-(trifluoromethyl)phenyl]-1H-pyrazol-3-yl}formamido)-4-(4-fluorophenoxy)butanoic acid] | –
16 | 475 | O=C(O)C[C@H](CC(=O)N1CCCCC1)NC(=O)c1cc(-c2ccccc2C(F)(F)F)n(C2CCCC2)n1 [compound 508, (3S)-3-({1-cyclopentyl-5-[2-(trifluoromethyl)phenyl]-1H-pyrazol-3-yl}formamido)-5-oxo-5-(piperidin-1-yl)pentanoic acid] | –

Second part, the compound before the results:

Row | SMILES | EC50 (read-out: EC50 (nM) Ave) [nM] | EC50 (EC50 (nM) Ave) [nM]
17 | COc1cccc(OC)c1-c1cc(C(=O)N[C@@H](CCN2CCCCCC2)CC(=O)NC2CCC2)nn1C1CCCC1 [compound 324, (3S)-5-(azepan-1-yl)-N-cyclobutyl-3-{[1-cyclopentyl-5-(2,6-dimethoxyphenyl)-1H-pyrazol-3-yl]formamido}pentanamide] | 107 | –
18 | O=C(O)C[C@H](CCN1CC(F)(F)C(F)(F)C(F)(F)C1)NC(=O)c1cc(-c2ccccc2C(F)(F)F)n(C2CCCC2)n1 [compound 566, (3S)-3-({1-cyclopentyl-5-[2-(trifluoromethyl)phenyl]-1H-pyrazol-3-yl}formamido)-5-(3,3,4,4,5,5-hexafluoropiperidin-1-yl)pentanoic acid] | – | 3050
19 | COc1cccc(OC)c1-c1cc(C(=O)N[C@H](CC(=O)O)Cc2ccccc2)nn1C1CCCC1 [compound 401, (3S)-3-{[1-cyclopentyl-5-(2,6-dimethoxyphenyl)-1H-pyrazol-3-yl]formamido}-4-phenylbutanoic acid] | > 10000 | –
20 | COc1cccc(OC)c1-c1cc(C(=O)N[C@@H](CCN2CCCC2)CC(=O)OC(C)(C)C)nn1C1CCCC1 [compound 316, tert-butyl (3S)-3-{[1-cyclopentyl-5-(2,6-dimethoxyphenyl)-1H-pyrazol-3-yl]formamido}-5-(pyrrolidin-1-yl)pentanoate] | > 10000 | –
21 | CC(C)[C@H](NC(=O)c1cc(-c2ccccc2C(F)(F)F)n(C2CCCC2)n1)C(=O)O [compound 528, (2S)-2-({1-cyclopentyl-5-[2-(trifluoromethyl)phenyl]-1H-pyrazol-3-yl}formamido)-3-methylbutanoic acid] | > 10000 | –
22 | COc1cccc(OC)c1-c1cc(C(=O)N[C@@H](CC2CCC2)C(=O)NC2CCC2)nn1C1CCCC1 [compound 377, (2S)-N,3-dicyclobutyl-2-{[1-cyclopentyl-5-(2,6-dimethoxyphenyl)-1H-pyrazol-3-yl]formamido}propanamide] | > 10000 | –
23 | COc1cccc(OC)c1-c1cc(C(=O)N[C@@H](CCN2CCCCC2)CC(=O)NC2CCOCC2)nn1C1CCCC1 [compound 332, (3S)-3-{[1-cyclopentyl-5-(2,6-dimethoxyphenyl)-1H-pyrazol-3-yl]formamido}-N-(oxan-4-yl)-5-(piperidin-1-yl)pentanamide] | 391 | –
24 | COc1cccc(OC)c1-c1cc(C(=O)N[C@@H](CCCC2CCCCC2)CC(=O)O)nn1CC(C)C [compound 301, (3S)-6-cyclohexyl-3-{[5-(2,6-dimethoxyphenyl)-1-(2-methylpropyl)-1H-pyrazol-3-yl]formamido}hexanoic acid] | 2590 | –
25 | COc1cccc(OC)c1-c1cc(C(=O)N[C@@H](CC2CC2)C(=O)NC2CCC2)nn1C1CCCC1 [compound 376, (2S)-N-cyclobutyl-2-{[1-cyclopentyl-5-(2,6-dimethoxyphenyl)-1H-pyrazol-3-yl]formamido}-3-cyclopropylpropanamide] | > 10000 | –
26 | O=C(C[C@H](CCN1CCCCC1)NC(=O)c1cc(-c2ccccn2)n(C2CCCC2)n1)NC1CCC1 [compound 375, (3S)-N-cyclobutyl-3-{[1-cyclopentyl-5-(pyridin-2-yl)-1H-pyrazol-3-yl]formamido}-5-(piperidin-1-yl)pentanamide] | > 10000 | –
27 | COc1cccc(OC)c1-c1cc(C(=O)N[C@@H](CCc2ccccc2)CC(=O)Nc2nccs2)nn1C1CCCC1 [compound 380, (3S)-3-{[1-cyclopentyl-5-(2,6-dimethoxyphenyl)-1H-pyrazol-3-yl]formamido}-5-phenyl-N-(1,3-thiazol-2-yl)pentanamide] | 94 | –
28 | Cc1noc(C)c1-c1cc(C(=O)N[C@@H](CCN2CCCCC2)CC(=O)NC2CCC2)nn1C1CCCC1 [compound 369, (3S)-N-cyclobu tyl-3-{[1-cyclopentyl-5-(dimethyl-1,2-oxazol-4-yl)-1H-pyrazol-3-yl]formamido}-5-(piperidin-1-yl)pentanamide] | > 10000 | –

— US11535630B2, “Apelin receptor (APJ) agonists and uses thereof” (Research Triangle Institute, priority 2015, dated 2022)
